The text below walks through data of publication PMC10125213 (Journal of Molecular Biology, 2023).

A value given as a limit tells only on which side of the number the result lay.

Some targets named below: Omicron (BA.1) S protein (Severe acute respiratory syndrome coronavirus 2, UniProt P0DTC2, A67V/D614G/D796Y/DEL143-145/DEL211-211/DEL69-70/E484A/G142D/G339D/G446S/G496S/H655Y/INS214EPE/K417N/L212I/L981F/N440K/N501Y/N679K/N764K/N856K/N969K/P681H/Q493K/Q498R/Q954H/S371L/S373P/S375F/S477N/T478K/T547K/T95I/Y505H); BA.2 S protein (Severe acute respiratory syndrome coronavirus 2, UniProt P0DTC2, A27S/D405N/D614G/D796Y/DEL24-26/E484A/G142D/G339D/H655Y/K417N/N440K/N501Y/N679K/N764K/N969K/P681H/Q493R/Q498R/Q954H/R408S/S371F/S373P/S375F/S477N/T19I/T376A/T478K/V213G/Y505H); BA.4/5 S protein (Severe acute respiratory syndrome coronavirus 2, UniProt P0DTC2, A27S/D405N/D614G/D796Y/DEL24-26/DEL69-70/E484A/F486V/G142D/G339D/H655Y/K417N/L452R/N440K/N501Y/N679K/N764K/N969K/P681H/Q498R/Q954H/R408S/S371F/S373P/S375F/S477N/T19I/T376A/T478K/V213G/Y505H); Omicron RBD (Severe acute respiratory syndrome coronavirus 2, UniProt P0DTC2, E484A/G339D/G446S/G496S/K417N/N440K/N501Y/Q493K/Q498R/S371L/S373P/S375F/S477N/T478K/Y505H).

Type in all cases: binding, SARS-CoV-2
Experiment [1] relates to RBM mutant RBD protein derived from BA.2.
In experiment [2] the target is RBM mutant RBD protein derived from BA.4/5 (Severe acute respiratory syndrome coronavirus 2, UniProt P0DTC2, E484A/F486V/L452R/N440K/N501Y/Q498R/S477N/T478K/Y505H).

Consider `N[C@@H](CCC(=O)N[C@@H](CS)C(=O)NCC(=O)O)C(=O)O` [GSH, reduced glutathione], for which the half-inhibitory concentration (IC50) against Omicron (BA.1) S protein, at BA.2 S protein and at BA.4/5 S protein was under 10 mM throughout.

For the compound `O=C(O)CCP(CCC(=O)O)CCC(=O)O` [TCEP, tris-(2-carboxyethyl)phosphine], the “inhibition of activity of Omicron RBD” value at Omicron RBD is over 80%. Moreover, the “sensitivity to TCEP compared to WT protein” value in experiment [1] and in experiment [2] was “enhanced sensitivities” each time.
